*1 amine or outer side, *2 acyl side, *3 side chain or, on linkers, in order; H or OH if unused. Where a SMILES comes first, the peptide text is derived from it. Bridges are numbered along the chain shown (N, C = ends). [ ]: non-standard residue; d: D form. The star is where a group is joined. hPhe(3,5-F2-4-CF3) = N[C@@H](CCc1cc(F)c(C(F)(F)F)c(F)c1)C(=O)O; NPrPhe(4-CF3) = CCCN[C@@H](Cc1ccc(C(F)(F)F)cc1)C(=O)O; NMeAbu(4,4,4-F3) = CN[C@@H](CC(F)(F)F)C(=O)O; X16 = O=C([C@@H](N[*:1])C1CC(F)(F)C1)[*:2]; NMeGly(cPent) = CN[C@H](C(=O)O)C1CCCC1; Ac4c(3,3-F2) = NC1(C(=O)O)CC(F)(F)C1; X9 = C[C@@](N[*:1])(C(=O)[*:2])C1CC1; Nva(3-Et) = CCC(CC)[C@H](N)C(=O)O; NMeD = CN[C@@H](CC(=O)O)C(=O)O; NMeL = CN[C@@H](CC(C)C)C(=O)O; Morpholide = C1CN(*)CCO1; Ac5c = NC1(C(=O)O)CCCC1; Aze = O=C(O)[C@@H]1CCN1; Sar = CNCC(=O)O

Assay [1] concerns the target GDP-bound NRAS wild-type protein (Homo sapiens, UniProt P01111). The assay is described as follows: Binding to NRAS by surface plasmon resonance (SPR), Single Cycle Kinetics. As to conditions: KD ratio NRAS/KRAS, SPR. (In SPR one partner is held on a chip, and binding of the other changes the refractive index at the surface.)
The target of assay [2] is GDP-bound HRAS wild-type protein (Homo sapiens, UniProt P01112). The assay is described as follows: Binding to HRAS by surface plasmon resonance (SPR), Single Cycle Kinetics. As to conditions: KD ratio HRAS/KRAS, SPR.
Chain of GDP-bound HRAS wild-type protein (P01112 whole entry): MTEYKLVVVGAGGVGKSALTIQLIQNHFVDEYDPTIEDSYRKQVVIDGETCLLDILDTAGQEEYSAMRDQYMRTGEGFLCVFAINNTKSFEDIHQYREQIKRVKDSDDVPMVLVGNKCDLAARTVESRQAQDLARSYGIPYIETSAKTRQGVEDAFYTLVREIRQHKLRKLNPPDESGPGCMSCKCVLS

Chain of GDP-bound NRAS wild-type protein (P01111 whole entry): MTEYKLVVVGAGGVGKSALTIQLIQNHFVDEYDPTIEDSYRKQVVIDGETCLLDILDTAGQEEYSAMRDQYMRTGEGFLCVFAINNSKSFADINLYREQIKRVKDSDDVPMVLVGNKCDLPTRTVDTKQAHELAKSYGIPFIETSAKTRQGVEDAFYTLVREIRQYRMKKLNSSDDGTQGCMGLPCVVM

In the case of `CCCN1C(=O)CN(C)C(=O)CN(C)C(=O)[C@H]([C@@H](C)CC)NC(=O)[C@H](CC(C)C)N(C)C(=O)C[C@@H](C(=O)N2CCOCC2)N(C)C(=O)[C@H](C2CCCC2)N(C)C(=O)C2(CC(F)(F)C2)NC(=O)[C@@H]2CCCN2C(=O)[C@H](CCc2cc(F)c(C(F)(F)F)c(F)c2)NC(=O)CN(C)C(=O)[C@@H]1Cc1ccc(C(F)(F)F)cc1` [PP0766] ([NMeL]I[Sar][Sar][NPrPhe(4-CF3)][Sar][hPhe(3,5-F2-4-CF3)]P[Ac4c(3,3-F2)][NMeGly(cPent)][NMeD]-Morpholide; lactam N-11), in assay [1], the “NRAS/KRAS (ratio of KD value with respect to GDP-bound NRAS wild-type protein to KD value with respect to KRAS)” value was “B (a compound having 3 or more and less than 10 is denoted as B)”. For the same molecule, the “HRAS/KRAS (ratio of KD value with respect to GDP-bound HRAS wild-type protein to KD value with respect to KRAS)” value in assay [2] is “B (a compound having 3 or more and less than 10 is denoted as B)”.

Turning to `CCCN1C(=O)CN(C)C(=O)CN(C)C(=O)[C@H]([C@@H](C)CC)NC(=O)[C@H](CC(C)C)N(C)C(=O)C[C@@H](C(=O)N2CCOCC2)N(C)C(=O)[C@H](CC(F)(F)F)N(C)C(=O)C2(CCCC2)NC(=O)[C@@H]2CCCN2C(=O)[C@H](CCc2cc(F)c(C(F)(F)F)c(F)c2)NC(=O)CN(C)C(=O)[C@@H]1Cc1ccc(C(F)(F)F)cc1` [PP0767] ([NMeL]I[Sar][Sar][NPrPhe(4-CF3)][Sar][hPhe(3,5-F2-4-CF3)]P[Ac5c][NMeAbu(4,4,4-F3)][NMeD]-Morpholide; lactam N-11), the “NRAS/KRAS (ratio of KD value with respect to GDP-bound NRAS wild-type protein to KD value with respect to KRAS)” value in assay [1] was “B (a compound having 3 or more and less than 10 is denoted as B)”. In addition, in assay [2], the “HRAS/KRAS (ratio of KD value with respect to GDP-bound HRAS wild-type protein to KD value with respect to KRAS)” value is “C (A compound having a KD ratio of 0.1 or more and less than 3 is denoted as C)”.

`CCCN1C(=O)CN(C)C(=O)CN(C)C(=O)[C@H](C(CC)CC)NC(=O)[C@H](CC(C)C)N(C)C(=O)C[C@@H](C(=O)N2CCOCC2)N(C)C(=O)[C@H](C2CCCC2)N(C)C(=O)C2(CCCC2)NC(=O)[C@@H]2CCCN2C(=O)[C@H](CCc2cc(F)c(C(F)(F)F)c(F)c2)NC(=O)CN(C)C(=O)[C@@H]1Cc1ccc(C(F)(F)F)cc1` [PP0768] ([NMeL][Nva(3-Et)][Sar][Sar][NPrPhe(4-CF3)][Sar][hPhe(3,5-F2-4-CF3)]P[Ac5c][NMeGly(cPent)][NMeD]-Morpholide; lactam N-11): the “NRAS/KRAS (ratio of KD value with respect to GDP-bound NRAS wild-type protein to KD value with respect to KRAS)” value in assay [1] was “B (a compound having 3 or more and less than 10 is denoted as B)”. Besides, in assay [2], the “HRAS/KRAS (ratio of KD value with respect to GDP-bound HRAS wild-type protein to KD value with respect to KRAS)” value is “C (A compound having a KD ratio of 0.1 or more and less than 3 is denoted as C)”.

Turning to `CCCN1C(=O)CN(C)C(=O)CN(C)C(=O)[C@H](C2CC(F)(F)C2)NC(=O)[C@H](CC(C)C)N(C)C(=O)C[C@@H](C(=O)N2CCOCC2)N(C)C(=O)[C@H](C2CCCC2)N(C)C(=O)C2(CCCC2)NC(=O)[C@@H]2CCCN2C(=O)[C@H](CCc2cc(F)c(C(F)(F)F)c(F)c2)NC(=O)CN(C)C(=O)[C@@H]1Cc1ccc(C(F)(F)F)cc1` [PP0769] ([NMeL][X16][Sar][Sar][NPrPhe(4-CF3)][Sar][hPhe(3,5-F2-4-CF3)]P[Ac5c][NMeGly(cPent)][NMeD]-Morpholide; lactam N-11), the “NRAS/KRAS (ratio of KD value with respect to GDP-bound NRAS wild-type protein to KD value with respect to KRAS)” value in assay [1] is “B (a compound having 3 or more and less than 10 is denoted as B)”. Besides, in assay [2], the “HRAS/KRAS (ratio of KD value with respect to GDP-bound HRAS wild-type protein to KD value with respect to KRAS)” value is “C (A compound having a KD ratio of 0.1 or more and less than 3 is denoted as C)”.

As to `CCCN1C(=O)CN(C)C(=O)[C@@H]2CCN2C(=O)[C@H]([C@@H](C)CC)NC(=O)[C@H](CC(C)C)N(C)C(=O)C[C@@H](C(=O)N2CCOCC2)N(C)C(=O)[C@H](C2CCCC2)N(C)C(=O)C2(CCCC2)NC(=O)[C@@H]2CCCN2C(=O)[C@H](CCc2cc(F)c(C(F)(F)F)c(F)c2)NC(=O)CN(C)C(=O)[C@@H]1Cc1ccc(C(F)(F)F)cc1` [PP0770] ([NMeL]I[Aze][Sar][NPrPhe(4-CF3)][Sar][hPhe(3,5-F2-4-CF3)]P[Ac5c][NMeGly(cPent)][NMeD]-Morpholide; lactam N-11), the “NRAS/KRAS (ratio of KD value with respect to GDP-bound NRAS wild-type protein to KD value with respect to KRAS)” value in assay [1] was “B (a compound having 3 or more and less than 10 is denoted as B)”. In addition, the “HRAS/KRAS (ratio of KD value with respect to GDP-bound HRAS wild-type protein to KD value with respect to KRAS)” value in assay [2] was “B (a compound having 3 or more and less than 10 is denoted as B)”.

Turning to `CCCN1C(=O)CN(C)C(=O)[C@@H]2CCN2C(=O)[C@H]([C@@H](C)CC)NC(=O)[C@H](CC(C)C)N(C)C(=O)C[C@@H](C(=O)N2CCOCC2)N(C)C(=O)[C@H](C2CCCC2)N(C)C(=O)[C@](C)(C2CC2)NC(=O)[C@@H]2CCCN2C(=O)[C@H](CCc2cc(F)c(C(F)(F)F)c(F)c2)NC(=O)CN(C)C(=O)[C@@H]1Cc1ccc(C(F)(F)F)cc1` [PP0772] ([NMeL]I[Aze][Sar][NPrPhe(4-CF3)][Sar][hPhe(3,5-F2-4-CF3)]P[X9][NMeGly(cPent)][NMeD]-Morpholide; lactam N-11), the “NRAS/KRAS (ratio of KD value with respect to GDP-bound NRAS wild-type protein to KD value with respect to KRAS)” value in assay [1] is “B (a compound having 3 or more and less than 10 is denoted as B)”. In addition, in assay [2], the “HRAS/KRAS (ratio of KD value with respect to GDP-bound HRAS wild-type protein to KD value with respect to KRAS)” value was “B (a compound having 3 or more and less than 10 is denoted as B)”.

Values taken from US20250230193A1, “CYCLIC COMPOUND HAVING SELECTIVE KRAS INHIBITORY EFFECT ON HRAS AND NRAS” (CHUGAI SEIYAKU KABUSHIKI KAISHA, priority 2022, published 2025).
